Results taken from the CheMixHub viscosity set.

Experiment: xn = mol fraction of the nth substance listed

CCCC(=O)OCC + c1ccccc1
Details | viscosity [mPa·s]
303.15 K, 101.33 kPa, x2 = 0.0662 | 0.591
303.15 K, 101.33 kPa, x2 = 0.2048 | 0.581
303.15 K, 101.33 kPa, x2 = 0.3293 | 0.571
303.15 K, 101.33 kPa, x2 = 0.4394 | 0.563
303.15 K, 101.33 kPa, x2 = 0.5452 | 0.559
303.15 K, 101.33 kPa, x2 = 0.5996 | 0.555
303.15 K, 101.33 kPa, x2 = 0.6452 | 0.554
303.15 K, 101.33 kPa, x2 = 0.7372 | 0.551
303.15 K, 101.33 kPa, x2 = 0.8161 | 0.551
303.15 K, 101.33 kPa, x2 = 0.8938 | 0.554
303.15 K, 101.33 kPa, x2 = 0.9658 | 0.555
308.15 K, 101.3 kPa, x1 = 0.0473 | 0.534
308.15 K, 101.3 kPa, x1 = 0.099 | 0.531
308.15 K, 101.3 kPa, x1 = 0.1937 | 0.528
308.15 K, 101.3 kPa, x1 = 0.2987 | 0.526
308.15 K, 101.3 kPa, x1 = 0.4059 | 0.527
308.15 K, 101.3 kPa, x1 = 0.4998 | 0.529
308.15 K, 101.3 kPa, x1 = 0.5753 | 0.533
308.15 K, 101.3 kPa, x1 = 0.7021 | 0.541
308.15 K, 101.3 kPa, x1 = 0.7978 | 0.55
308.15 K, 101.3 kPa, x1 = 0.903 | 0.562
308.15 K, 101.3 kPa, x1 = 0.9514 | 0.569
313.15 K, 101.33 kPa, x2 = 0.2126 | 0.539
313.15 K, 101.33 kPa, x2 = 0.4055 | 0.521
313.15 K, 101.33 kPa, x2 = 0.507 | 0.513
313.15 K, 101.33 kPa, x2 = 0.6031 | 0.506
313.15 K, 101.33 kPa, x2 = 0.8066 | 0.496
318.15 K, 101.3 kPa, x1 = 0.0473 | 0.47
318.15 K, 101.3 kPa, x1 = 0.099 | 0.471
318.15 K, 101.3 kPa, x1 = 0.1937 | 0.472
318.15 K, 101.3 kPa, x1 = 0.2987 | 0.476
318.15 K, 101.3 kPa, x1 = 0.4059 | 0.481
318.15 K, 101.3 kPa, x1 = 0.4998 | 0.486
318.15 K, 101.3 kPa, x1 = 0.5753 | 0.491
318.15 K, 101.3 kPa, x1 = 0.7021 | 0.502
318.15 K, 101.3 kPa, x1 = 0.7978 | 0.512
318.15 K, 101.3 kPa, x1 = 0.903 | 0.525
318.15 K, 101.3 kPa, x1 = 0.9514 | 0.531

CCCC(=O)OCC + C1CCCCC1
viscosity [mPa·s], 101 kPa
Details | 298.15 K | 308.15 K
x1 = 0.0551 | 0.852 | 0.72
x1 = 0.1552 | 0.796 | 0.667
x1 = 0.2554 | 0.75 | 0.626
x1 = 0.3554 | 0.711 | 0.594
x1 = 0.4504 | 0.682 | 0.573
x1 = 0.4992 | 0.669 | 0.564
x1 = 0.5558 | 0.656 | 0.557
x1 = 0.6532 | 0.638 | 0.549
x1 = 0.7547 | 0.624 | 0.548
x1 = 0.8532 | 0.616 | 0.554
x1 = 0.9564 | 0.613 | 0.568

CC[N+](=O)[O-] + CCO
viscosity [mPa·s], 101.33 kPa
Details | 293.15 K | 303.15 K | 313.15 K
x2 = 0.05 | 0.669 | 0.598 | 0.538
x2 = 0.1001 | 0.655 | 0.584 | 0.526
x2 = 0.15 | 0.648 | 0.576 | 0.519
x2 = 0.2 | 0.645 | 0.573 | 0.512
x2 = 0.25 | 0.65 | 0.57 | 0.507
x2 = 0.3 | 0.651 | 0.571 | 0.506
x2 = 0.35 | 0.658 | 0.575 | 0.509
x2 = 0.4 | 0.668 | 0.583 | 0.513
x2 = 0.45 | 0.681 | 0.593 | 0.519
x2 = 0.5 | 0.697 | 0.603 | 0.528
x2 = 0.55 | 0.716 | 0.618 | 0.538
x2 = 0.6 | 0.738 | 0.636 | 0.55
x2 = 0.65 | 0.769 | 0.656 | 0.567
x2 = 0.7 | 0.804 | 0.682 | 0.586
x2 = 0.7499 | 0.839 | 0.712 | 0.608
x2 = 0.8 | 0.886 | 0.748 | 0.637
x2 = 0.8499 | 0.944 | 0.793 | 0.672
x2 = 0.9 | 1.015 | 0.847 | 0.715
x2 = 0.9499 | 1.103 | 0.914 | 0.77

O=C(O)[C@H](O)[C@@H](O)C(=O)O + C[N+](C)(C)CCO.[Cl-]
viscosity [mPa·s]
Details | 303 K | 313 K | 313.2 K | 323 K
101 kPa, x2 = 0.5 | 1281000 | 240000 | – | 73300
101.3 kPa, x2 = 0.669 | – | – | 6790 | –

CCCCN + CCCCCCO
viscosity [mPa·s], 101.33 kPa
Details | 303.15 K | 313.15 K | 323.15 K
x1 = 0.099 | 3.27 | 2.673 | –
x1 = 0.1002 | 3.164 | 2.411 | 1.888
x1 = 0.2005 | 2.593 | 2.026 | 1.608
x1 = 0.2079 | 2.728 | 2.202 | –
x1 = 0.2888 | 2.334 | 1.906 | –
x1 = 0.3001 | 2.082 | 1.642 | 1.322
x1 = 0.4004 | 1.701 | 1.356 | 1.113
x1 = 0.414 | 1.79 | 1.47 | –
x1 = 0.5002 | 1.371 | 1.12 | 0.923
x1 = 0.5223 | 1.39 | 1.161 | –
x1 = 0.5987 | 1.155 | 0.9887 | –
x1 = 0.6001 | 1.105 | 0.909 | 0.765
x1 = 0.6999 | 0.906 | 0.759 | 0.648
x1 = 0.7197 | 0.8668 | 0.754 | –
x1 = 0.8001 | 0.729 | 0.622 | 0.537
x1 = 0.8124 | 0.6995 | 0.611 | –
x1 = 0.8998 | 0.573 | 0.494 | 0.433
x1 = 0.9046 | 0.5625 | 0.4944 | –

CCCCN + CCO
viscosity [mPa·s]
Details | 298.15 K | 303.15 K | 313.15 K
100 kPa, x2 = 0.102 | 0.514 | – | –
100 kPa, x2 = 0.15 | 0.542 | – | –
100 kPa, x2 = 0.295 | 0.626 | – | –
100 kPa, x2 = 0.449 | 0.749 | – | –
100 kPa, x2 = 0.501 | 0.791 | – | –
100 kPa, x2 = 0.595 | 0.872 | – | –
100 kPa, x2 = 0.68 | 0.931 | – | –
100 kPa, x2 = 0.752 | 0.977 | – | –
100 kPa, x2 = 0.897 | 1.051 | – | –
101.33 kPa, x1 = 0.1093 | – | 0.9614 | 0.7843
101.33 kPa, x1 = 0.1943 | – | 0.9273 | 0.747
101.33 kPa, x1 = 0.2825 | – | 0.8774 | 0.7048
101.33 kPa, x1 = 0.4151 | – | 0.7915 | 0.6383
101.33 kPa, x1 = 0.5136 | – | 0.7146 | 0.5888
101.33 kPa, x1 = 0.6128 | – | 0.6369 | 0.5355
101.33 kPa, x1 = 0.7066 | – | 0.5687 | 0.4844
101.33 kPa, x1 = 0.8039 | – | 0.5095 | 0.4428
101.33 kPa, x1 = 0.894 | – | 0.4717 | 0.4132

CCCCN + Cc1ccc(C)cc1
303.15 K, 101 kPa
Details | viscosity [mPa·s]
x1 = 0.0795 | 0.545
x1 = 0.1507 | 0.53
x1 = 0.2545 | 0.511
x1 = 0.3628 | 0.494
x1 = 0.4612 | 0.481
x1 = 0.5562 | 0.471
x1 = 0.6469 | 0.464
x1 = 0.7338 | 0.457
x1 = 0.8144 | 0.451
x1 = 0.8979 | 0.448
x1 = 0.9456 | 0.444

CCCCN + COCCO
308.15 K, 101 kPa
Details | viscosity [mPa·s]
x2 = 0.1234 | 0.5285
x2 = 0.2404 | 0.6274
x2 = 0.3516 | 0.7219
x2 = 0.4576 | 0.8199
x2 = 0.5606 | 0.9142
x2 = 0.6503 | 0.9868
x2 = 0.7471 | 1.048
x2 = 0.8351 | 1.111
x2 = 0.9193 | 1.173
